According to US20230340012A1, “NATURAL AND SYNTHETIC COMPOUNDS FOR TREATING CANCER AND OTHER DISEASES” (PACIFIC ARROW LIMITED, priority 2009, published 2023):

Test system: cancer cells
Experiment: MTT cytotoxic assay of esterification products (Cytotoxicity activity)
Format: cell-based, human
In short: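 Cytotoxicity was read by MTT (Carmichael method, modified), with cells seeded 24 h ahead of treatment. Sixteen human cancer lines spanning bone, lung, bladder, ovary, colon, pancreas, prostate, skin, mouth, kidney, breast, liver, brain, leukemia and cervix were used. Test samples were acyl chloride esterification products of triterpenes, as mixtures or HPLC-purified compounds.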

[1] = E4A esterified with Cinnamoyl chloride (Cin = Cinnamoyl), compounds isolated with HPLC
[2] = E4A esterified with 2-propenoyl chloride (Ppe = Propenoyl), compounds isolated with HPLC
[3] = E4A esterified with Propionyl chloride (Ppi = Propionyl), compounds isolated with HPLC
[4] = E4A esterified with benzoyl chloride (Ben = benzoyl), compounds isolated with HPLC
[5] = esterification products of core compound E4A with (2E)-2-pentenoyl chloride (2pe = 2-pentenoyl)
[6] = esterification products of core compound E4A with Butyryl chloride (But = Butyryl)
[7] = esterification products of core compound E4A with Decanoyl chloride (Dec = Decanoyl)
[8] = esterification products of core compound E4A with Isobutyryl chloride (Iso = Isobutyryl)
[9] = esterification products of core compound E4A with Myristoyl chloride (Myr = Myristoyl)
[10] = esterification products of core compound E4A with Octanoyl chloride (Oct = Octanoyl)

SMILES | Cytotoxicity activity [1] | Cytotoxicity activity [2] | Cytotoxicity activity [3] | Cytotoxicity activity [4] | Cytotoxicity activity [5] | Cytotoxicity activity [6] | Cytotoxicity activity [7] | Cytotoxicity activity [8] | Cytotoxicity activity [9] | Cytotoxicity activity [10]
CC1(C)CC2C3=CCC4C5(C)CCC(O)C(C)(CO)C5CCC4(C)C3(C)CC(OC(=O)C=Cc3ccccc3)C2(COC(=O)C=Cc2ccccc2)C(O)C1O (centres unmarked) [Compound J28] | moderate |  |  |  |  |  |  |  |  | 
CC1(C)CC2C3=CCC4C5(C)CCC(O)C(C)(COC(=O)C=Cc6ccccc6)C5CCC4(C)C3(C)CC(O)C2(CO)C(O)C1OC(=O)C=Cc1ccccc1 (centres unmarked) [Compound J29] | moderate |  |  |  |  |  |  |  |  | 
CC1(C)CC2C3=CCC4C5(C)CCC(O)C(C)(COC(=O)C=Cc6ccccc6)C5CCC4(C)C3(C)CC(O)C2(CO)C(OC(=O)C=Cc2ccccc2)C1O (centres unmarked) [Compound J30] | moderate |  |  |  |  |  |  |  |  | 
CC1(C)CC2C3=CCC4C5(C)CCC(OC(=O)C=Cc6ccccc6)C(C)(COC(=O)C=Cc6ccccc6)C5CCC4(C)C3(C)CC(O)C2(CO)C(O)C1O (centres unmarked) [Compound J31] | moderate |  |  |  |  |  |  |  |  | 
CC1(C)CC2C3=CCC4C5(C)CCC(O)C(C)(COC(=O)C=Cc6ccccc6)C5CCC4(C)C3(C)CC(OC(=O)C=Cc3ccccc3)C2(CO)C(O)C1O (centres unmarked) [Compound J32] | moderate |  |  |  |  |  |  |  |  | 
CC1(C)CC2C3=CCC4C5(C)CCC(O)C(C)(COC(=O)c6ccccc6)C5CCC4(C)C3(C)CC(OC(=O)c3ccccc3)C2(COC(=O)c2ccccc2)C(OC(=O)c2ccccc2)C1O (centres unmarked) [Compound K12] |  | weak | weak | weak | weak | weak | weak | weak | weak | weak
CC1(C)CC2C3=CCC4C5(C)CCC(O)C(C)(COC(=O)c6ccccc6)C5CCC4(C)C3(C)CC(OC(=O)c3ccccc3)C2(COC(=O)c2ccccc2)C(O)C1OC(=O)c1ccccc1 (centres unmarked) [Compound K13] |  | weak | weak | weak | weak | weak | weak | weak | weak | weak
CC1(C)CC2C3=CCC4C5(C)CCC(OC(=O)c6ccccc6)C(C)(COC(=O)c6ccccc6)C5CCC4(C)C3(C)CC(O)C2(COC(=O)c2ccccc2)C(OC(=O)c2ccccc2)C1O (centres unmarked) [Compound K14] |  | weak | weak | weak | weak | weak | weak | weak | weak | weak
CC1(C)CC2C3=CCC4C5(C)CCC(OC(=O)c6ccccc6)C(C)(COC(=O)c6ccccc6)C5CCC4(C)C3(C)CC(O)C2(COC(=O)c2ccccc2)C(OC(=O)c2ccccc2)C1OC(=O)c1ccccc1 (centres unmarked) [Compound K15] |  | weak | weak | weak | weak | weak | weak | weak | weak | weak
CC1(C)CC2C3=CCC4C5(C)CCC(O)C(C)(COC(=O)c6ccccc6)C5CCC4(C)C3(C)CC(OC(=O)c3ccccc3)C2(COC(=O)c2ccccc2)C(OC(=O)c2ccccc2)C1OC(=O)c1ccccc1 (centres unmarked) [Compound K16] |  | weak | weak | weak | weak | weak | weak | weak | weak | weak
CC1(C)CC2C3=CCC4C5(C)CCC(OC(=O)c6ccccc6)C(C)(COC(=O)c6ccccc6)C5CCC4(C)C3(C)CC(OC(=O)c3ccccc3)C2(COC(=O)c2ccccc2)C(O)C1OC(=O)c1ccccc1 (centres unmarked) [Compound K17] |  | weak | weak | weak | weak | weak | weak | weak | weak | weak
CC1(C)CC2C3=CCC4C5(C)CCC(OC(=O)c6ccccc6)C(C)(COC(=O)c6ccccc6)C5CCC4(C)C3(C)CC(OC(=O)c3ccccc3)C2(COC(=O)c2ccccc2)C(OC(=O)c2ccccc2)C1O (centres unmarked) [Compound K18] |  | weak | weak | weak | weak | weak | weak | weak | weak | weak
CC1(C)CC2C3=CCC4C5(C)CCC(OC(=O)c6ccccc6)C(C)(COC(=O)c6ccccc6)C5CCC4(C)C3(C)CC(OC(=O)c3ccccc3)C2(COC(=O)c2ccccc2)C(OC(=O)c2ccccc2)C1OC(=O)c1ccccc1 (centres unmarked) [Compound K19] |  | none | none | none | none | none | none | none | none | none
CC1(C)CC2C3=CCC4C5(C)CCC(O)C(C)(CO)C5CCC4(C)C3(C)CC(O)C2(COC(=O)c2ccccc2)C(OC(=O)c2ccccc2)C1OC(=O)c1ccccc1 (centres unmarked) [Compound K20] |  | moderate | moderate | moderate | moderate | moderate | moderate | moderate | moderate | moderate
CC1(C)CC2C3=CCC4C5(C)CCC(O)C(C)(COC(=O)c6ccccc6)C5CCC4(C)C3(C)CC(O)C2(CO)C(OC(=O)c2ccccc2)C1OC(=O)c1ccccc1 (centres unmarked) [Compound K21] |  | moderate | moderate | moderate | moderate | moderate | moderate | moderate | moderate | moderate
CC1(C)CC2C3=CCC4C5(C)CCC(O)C(C)(CO)C5CCC4(C)C3(C)CC(OC(=O)c3ccccc3)C2(CO)C(OC(=O)c2ccccc2)C1OC(=O)c1ccccc1 (centres unmarked) [Compound K22] |  | moderate | moderate | moderate | moderate | moderate | moderate | moderate | moderate | moderate
CC1(C)CC2C3=CCC4C5(C)CCC(OC(=O)c6ccccc6)C(C)(CO)C5CCC4(C)C3(C)CC(O)C2(CO)C(OC(=O)c2ccccc2)C1OC(=O)c1ccccc1 (centres unmarked) [Compound K23] |  | moderate | moderate | moderate | moderate | moderate | moderate | moderate | moderate | moderate
